The nature of assay [1]: Displacement of [3H]-DTG from sigma 2 receptor in rat liver membrane homogenates after 2 hrs by liquid scintillation counting. In kind it is cell membranes. Background: In a radioligand displacement assay an active substance lowers the binding of a labelled ligand.
In assay [2] the target is Sigma non-opioid intracellular receptor 1 (Cavia porcellus, UniProt Q60492). In words: Displacement of (+)-[3H]pentazocine from sigma 1 receptor in guinea pig brain membrane homogenates after 90 mins by liquid scintillation counting. The format is cell membranes.
For assay [3], the target named is T1, Vesicular acetylcholine transporter (Homo sapiens, UniProt Q16572).
T1 sequence (Q16572 whole entry): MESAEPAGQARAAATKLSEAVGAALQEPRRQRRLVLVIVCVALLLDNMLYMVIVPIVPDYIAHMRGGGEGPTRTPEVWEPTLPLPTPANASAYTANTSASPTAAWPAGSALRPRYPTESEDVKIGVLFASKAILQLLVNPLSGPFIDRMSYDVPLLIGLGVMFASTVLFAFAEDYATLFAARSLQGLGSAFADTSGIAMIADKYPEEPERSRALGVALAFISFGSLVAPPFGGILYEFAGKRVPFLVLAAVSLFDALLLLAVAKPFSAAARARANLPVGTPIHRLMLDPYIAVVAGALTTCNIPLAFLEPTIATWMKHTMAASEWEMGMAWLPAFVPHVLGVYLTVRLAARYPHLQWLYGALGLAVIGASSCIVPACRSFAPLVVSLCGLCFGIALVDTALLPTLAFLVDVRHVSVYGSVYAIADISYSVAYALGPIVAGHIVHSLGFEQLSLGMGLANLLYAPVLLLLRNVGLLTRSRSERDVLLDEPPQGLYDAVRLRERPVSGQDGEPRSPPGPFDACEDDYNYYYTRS
Kind of assay: Displacement of (-)-[3H]vesamicol from human VAChT expressed in rat PC12 A123.7 cells after 20 hrs. The format is cell-based, PC-12.

A short description of assay [4]: Selectivity ratio of Ki for sigma 1 receptor in guinea pig brain membrane homogenates to Ki for sigma 2 receptor in rat liver membrane homogenates. In kind it is cell membranes.
The nature of assay [5]: Selectivity ratio of Ki for sigma 1 receptor in guinea pig brain membrane homogenates to Ki for human VAChT. In kind it is cell membranes.

pKi: −log10 of the molar value.

Experimental findings from ChEMBL document CHEMBL1821670, “Synthesis and in vitro biological evaluation of carbonyl group-containing analogues for σ1 receptors” (J Med Chem, 2011) are described below.

Chain of Sigma non-opioid intracellular receptor 1 (Q60492 whole entry): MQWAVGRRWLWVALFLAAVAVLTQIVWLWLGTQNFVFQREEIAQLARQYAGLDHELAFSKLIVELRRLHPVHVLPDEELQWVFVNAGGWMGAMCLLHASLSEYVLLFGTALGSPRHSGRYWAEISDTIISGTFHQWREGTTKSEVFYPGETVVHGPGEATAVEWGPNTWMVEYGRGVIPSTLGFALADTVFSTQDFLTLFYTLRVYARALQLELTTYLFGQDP

For the compound `O[C@@H]1CCN(Cc2ccc(F)cc2)C[C@H]1N1CCC(c2ccccc2)CC1`, the pKi (as a rule, −log10 of the Ki, conventionally taken in molar units) in assay [1] is 7.44.
Regarding `Cc1ccc(C2CCN([C@@H]3CCCC[C@H]3O)CC2)cc1`, the pKi in assay [2] was 8.09; in assay [1], 7.37; in assay [3] it was 7.64.
`COc1ccc(CCN2CCN(CCCc3ccccc3)CC2)cc1OC`: the pKi in assay [1] is 6.62.
For the compound `O[C@@H]1CCN(Cc2cccc(I)c2)C[C@H]1N1CCC(c2ccccc2)CC1`, the pKi in assay [2] is 7.04; in assay [1], 6.72.
As to `O=C(c1ccc(F)cc1)C1CCN([C@H]2CCN(C(=O)c3ccc(F)cc3)C[C@@H]2O)CC1` (relative stereo), the negative logarithm of the Ki (pKi) in assay [1] is 5.06. In addition, the Ratio Ki amounted to 2.7 in assay [4] and 1.1 in assay [5].
The matching figures for `O=C(c1ccc(F)cc1)C1CCN([C@H]2CN(Cc3cccnc3)CC[C@@H]2O)CC1` (relative stereo): 4.89, 11 and 0.2.
In assay [1], `COc1ccc(C(=O)C2CCN([C@H]3CN(Cc4ccccc4)CC[C@@H]3O)CC2)cc1` (relative stereo) gave a pKi of 5.07. The Ratio Ki in assay [4] amounted to 41; in assay [5], 0.17.
Compound `COc1ccc(C(=O)C2CCN([C@H]3CN(Cc4cccnc4)CC[C@@H]3O)CC2)cc1` (relative stereo) showed a pKi in assay [1] of 4.77.
Turning to `O[C@@H]1CCCC[C@H]1N1CCC(c2ccccc2)CC1` [VESAMICOL], the values for the pKi in assay [2] and in assay [1] were 7.13 and 6.46, respectively.
